The source of these data is PubChem BioAssay (NCI).

Molecules are shown by their SMILES.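 Assay format: 96-well plates, 48-hour exposure. At the GI50, growth is halved. At the TGI there is no net growth.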

Holding throughout (assay): growth of human tumour cells (NCI), 48 h
In assay [1] the test system is MALME-3M melanoma.
The test system of assay [2] is UACC-62 melanoma.
In assay [3] the test system is NCI-H522 lung.
Assay [4] deals with HS 578T breast.
Assay [5] has as its system K-562 leukemia.
Assay [6] concerns SNB-75 CNS.
Assay [7] relates to 786-0 renal.
Assay [8] relates to SNB-19 CNS.
The subject of assay [9] is SR leukemia.
The test system of assay [10] is OVCAR-4 ovarian.

As to `COc1cc(N2CCN(C(C)C)CC2)ccc1Nc1nc(Nc2cccc3ncccc23)c2cc[nH]c2n1`, the GI50 in assay [1] is 4.52 µM; in [2], 4.06 µM; in assay [3], 3.97 µM; in assay [4] it was 5.42 µM; in assay [5], 5.34 µM; in assay [6], 3.99 µM. Further, the GI50 was 5.27 µM in assay [7], 8.99 µM in assay [8], 1.14 µM in assay [9] and 7.54 µM in assay [10]. The TGI in assay [1] was 9.64 µM; in assay [2] it was 8.53 µM; in assay [3], 9.05 µM; in assay [4], 24.3 µM; in assay [5], 18.4 µM; in [6], greater than 15.4 µM. The TGI in assay [7] is 12.4 µM; in assay [8], greater than 25 µM; in assay [9], greater than 11.1 µM; in assay [10], greater than 25 µM.
Regarding `Cc1csc(/C=N/NC(=O)c2nnn(-c3ccnc4c(C(F)(F)F)cccc34)c2C)c1`, the GI50 was 26.9 µM in assay [1]; 74.7 µM in [2]; 28.7 µM in assay [3]; greater than 100 µM in assay [4]; 35 µM in [5]; 27.2 µM in [6]. Further, the GI50 is greater than 100 µM in assay [7], 97.3 µM in assay [8], 19.3 µM in assay [9] and 5.2 µM in assay [10]. Further, the TGI is 92.2 µM in assay [1]; greater than 100 µM in assay [2]; greater than 100 µM in assay [3]; greater than 100 µM in assay [4]; greater than 100 µM in assay [5]; 92.1 µM in assay [6]. Also, the TGI is greater than 100 µM in [7], greater than 100 µM in assay [8], greater than 100 µM in assay [9] and 37.4 µM in assay [10].
For the compound `COc1ccc(C[n+]2c3ccccc3n3c4ccc(N)cc4ccc32)c(OC)c1OC`, the GI50 in assay [1] is 2.08 µM; in [2], 2.62 µM; in assay [3] it was 2.08 µM; in [4] it was 5.81 µM; in [5] it was 4.87 µM; in [6], 1.45 µM. In addition, the GI50 in [7] is 34.9 µM; in assay [8], 1.42 µM; in assay [9], 2.75 µM; in [10] it was 2.27 µM. For the same compound, the TGI is 7.48 µM in assay [1]; 10.9 µM in assay [2]; 15.7 µM in assay [3]; 35.2 µM in assay [4]; greater than 100 µM in assay [5]; 10.8 µM in assay [6]. Further, the TGI in assay [7] was greater than 100 µM; in assay [8], 15.8 µM; in [9], 19.2 µM; in assay [10], 31.9 µM.
As for `NC(=O)c1cc(-c2ccncc2)cc(-c2ccccc2)c1N`, the GI50 is greater than 25 µM in assay [1]; greater than 24.1 µM in assay [2]; 7.68 µM in assay [3]; 6.35 µM in assay [4]; greater than 20.1 µM in [5]; 4.76 µM in assay [6]. In addition, the GI50 in [7] was 15.9 µM; in assay [8], greater than 25 µM; in assay [9], 13.5 µM; in assay [10], greater than 20.6 µM. Also, the TGI in [1] is greater than 25 µM; in assay [2], greater than 25 µM; in assay [3], greater than 15.8 µM; in [4], greater than 23.6 µM; in assay [5], greater than 25 µM; in assay [6], 19.6 µM. Besides, the TGI in assay [7], in [8], in assay [9] and in [10] was greater than 25 µM each time.
As for `Oc1c(C(Nc2cccc3ccccc23)c2ccccc2)ccc2cccnc12` (stereo not given), the GI50 in [1] was 5.17 µM; in assay [2], 2.82 µM; in assay [3] it was 2.74 µM; in assay [4], 7.37 µM; in assay [5] it was 3.8 µM; in [6], 5.67 µM. Further, the GI50 in assay [7] was 3.37 µM; in [8] it was 5.64 µM; in assay [9] it was 2.76 µM; in assay [10], 2.3 µM. Also, the TGI is 25.7 µM in assay [1]; 39.6 µM in assay [2]; 7.82 µM in [3]; greater than 100 µM in assay [4]; greater than 100 µM in assay [5]; greater than 100 µM in [6]. Further, the TGI was 76.3 µM in assay [7], greater than 100 µM in assay [8], 22.5 µM in [9] and greater than 100 µM in assay [10].
Regarding `NC1=NC(c2ccc(Cl)cc2)N(c2ccc(S(=O)(=O)Nc3ncccn3)cc2)C(N)=N1` (stereo not given), the TGI in [1], in assay [2], in assay [3], in [4], in assay [5] and in [6] was greater than 100 µM in each case. Besides, the TGI in [7], in [8], in assay [9] and in assay [10] was greater than 100 µM in each case.
For `N#CC(C#N)=Cc1c(-c2ccccc2)[nH]c2ccccc12`, the GI50 in assay [1] is 15.8 µM; in [2], 2.24 µM; in [3], 4.23 µM; in [4], 2.31 µM; in assay [5], 0.478 µM; in [6] it was 2 µM. For the same compound, the GI50 was 8.55 µM in assay [7], 5.71 µM in [8], greater than 100 µM in [9] and 5.22 µM in assay [10]. Further, the TGI in assay [1] was greater than 100 µM; in assay [2], greater than 46.5 µM; in assay [3], 32.7 µM; in assay [4], 8.49 µM; in [5], greater than 100 µM; in assay [6] it was 14.3 µM. Besides, the TGI in assay [7] was greater than 64.1 µM; in assay [8] it was greater than 100 µM; in [9], greater than 100 µM; in assay [10], greater than 100 µM.
